Where “and” joins values, the source holds several entries; their conditions need not be identical. Equal values may be shown once. Inconclusive results and toxic doses are left out. Rule for the calls: active = survival T/C of 150% or more; inactive = T/C below 125% in these data.
System: P388 leukemia ip, CD2F1 mice, survival T/C
Experiment: NCI In Vivo Anticancer Drug Screen. Data for tumor model P388 Leukemia (intraperitoneal) in CD2F1 (CDF1) mice
Conditions: endpoint: median survival time, higher = longer survival
How it was run: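 Mice carrying the transplanted tumor received test compound or vehicle. Survival was recorded in each group, and the value is the treated-group measurement divided by that of the vehicle-treated control group.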

[1] = dose: 50.0 mg/kg/injection, schedule: Q01DX005 (ip), vehicle: saline with Tween-80
[2] = dose: 100.0 mg/kg/injection, schedule: Q01DX005 (ip), vehicle: saline with Tween-80
[3] = dose: 200.0 mg/kg/injection, schedule: Q01DX005 (ip), vehicle: saline with Tween-80
[4] = dose: 50.0 mg/kg/injection, schedule: Q01DX009 (ip), vehicle: Klucel (hydroxypropylcellulose) (HPC)
[5] = dose: 100.0 mg/kg/injection, schedule: Q01DX009 (ip), vehicle: Klucel (hydroxypropylcellulose) (HPC)
[6] = dose: 200.0 mg/kg/injection, schedule: Q01DX009 (ip), vehicle: Klucel (hydroxypropylcellulose) (HPC)
[7] = dose: 100.0 mg/kg/injection, schedule: Q01DX009 (ip), vehicle: saline with Tween-80
[8] = dose: 200.0 mg/kg/injection, schedule: Q01DX009 (ip), vehicle: saline with Tween-80
[9] = dose: 50.0 mg/kg/injection, schedule: Q01DX009 (ip), vehicle: saline with Tween-80
[10] = dose: 60.0 mg/kg/injection, schedule: Q01DX005 (ip), vehicle: Klucel (hydroxypropylcellulose) (HPC)
[11] = dose: 120.0 mg/kg/injection, schedule: Q01DX005 (ip), vehicle: Klucel (hydroxypropylcellulose) (HPC)
[12] = dose: 240.0 mg/kg/injection, schedule: Q01DX005 (ip), vehicle: Klucel (hydroxypropylcellulose) (HPC)
[13] = dose: 6.25 mg/kg/injection, schedule: Q04DX003 (ip), vehicle: saline
[14] = dose: 12.5 mg/kg/injection, schedule: Q04DX003 (ip), vehicle: saline
[15] = dose: 25.0 mg/kg/injection, schedule: Q01DX009 (ip), vehicle: saline with Tween-80
[16] = dose: 100.0 mg/kg/injection, schedule: Q01DX001 (ip), vehicle: saline with Tween-80
[17] = dose: 400.0 mg/kg/injection, schedule: Q01DX001 (ip), vehicle: saline with Tween-80

Measured: T/C

Brc1ccc2c(c1)-c1ccccc1C1=NCCN12
inactive: dose: 5.0 mg/kg/injection, schedule: Q01DX009 (ip), vehicle: saline 100 % of control | dose: 5.0 mg/kg/injection, schedule: Q04DX003 (ip), vehicle: saline 100 % of control | dose: 10.0 mg/kg/injection, schedule: Q01DX009 (ip), vehicle: saline 100 % of control | dose: 10.0 mg/kg/injection, schedule: Q04DX003 (ip), vehicle: saline 100 % of control | dose: 20.0 mg/kg/injection, schedule: Q01DX009 (ip), vehicle: saline 95 % of control | dose: 20.0 mg/kg/injection, schedule: Q04DX003 (ip), vehicle: saline 100 % of control and 104 % of control

CN(C)c1ccc2[nH]c3c(C(N)=O)cc(=O)c(=O)c=3oc2c1
inactive: dose: 25.0 mg/kg/injection, schedule: Q01DX005 (ip), vehicle: saline with Tween-80 100 % of control and 107 % of control | [1] 98 % of control and 100 % of control (2×) | [2] 100 % of control and 120 % of control and 97 % of control | [3] 98 % of control and 107 % of control and 117 % of control

CN(C)CCC#N
inactive: dose: 50.0 mg/kg/injection, schedule: Q01DX009 (ip), vehicle: saline 117 % of control | dose: 100.0 mg/kg/injection, schedule: Q01DX009 (ip), vehicle: saline 105 % of control | dose: 200.0 mg/kg/injection, schedule: Q01DX009 (ip), vehicle: saline 100 % of control

Cc1c(C)c(C)c(S(=O)(=O)N2CCN(S(=O)(=O)c3c(C)c(C)c(C)c(C)c3C)CC2)c(C)c1C
inactive: [1] 100 % of control | [2] 97 % of control | [3] 96 % of control

C1CCSCCCCCSCCCCCSCCCCCSCC1
inactive: [4] 97 % of control | [5] 96 % of control | [6] 94 % of control

CN(CO)N=Nc1ccc(C(F)(F)F)cc1
inactive: [1] 96 % of control | [2] 113 % of control | [3] 113 % of control

O=C(Cn1cnc2ccc([N+](=O)[O-])cc21)N1CCN(c2ccccc2)CC1
inactive: dose: 60.0 mg/kg/injection, schedule: Q01DX005 (ip), vehicle: saline with Tween-80 93 % of control | dose: 120.0 mg/kg/injection, schedule: Q01DX005 (ip), vehicle: saline with Tween-80 93 % of control

Cc1ccc(NS(=O)(=O)c2ccc(Cl)cc2)cc1Cl
inactive: [7] 104 % of control | [8] 98 % of control | dose: 400.0 mg/kg/injection, schedule: Q01DX009 (ip), vehicle: saline with Tween-80 100 % of control

OC(Nc1ncccn1)C(F)(F)F (configuration not stated)
inactive: [9] 92 % of control | [7] 111 % of control | [8] 120 % of control

S=C(N/N=C\c1c[nH]c2ccc(Br)cc12)NC12CC3CC(CC(C3)C1)C2
inactive: [10] 98 % of control | [11] 93 % of control | [12] 98 % of control

COC(=O)/C=C/C(=O)NC(N)=O
inactive: [13] 100 % of control | [14] 109 % of control | dose: 25.0 mg/kg/injection, schedule: Q04DX003 (ip), vehicle: saline 100 % of control

C1CN(SSN2CCOCC2)CCO1
inactive: dose: 12.5 mg/kg/injection, schedule: Q01DX009 (ip), vehicle: saline with Tween-80 113 % of control | [15] 104 % of control | [9] 100 % of control | [7] 100 % of control

O=c1ccc(N=Nc2cccc([N+](=O)[O-])c2)ccc1O
inactive: [15] 107 % of control | [9] 104 % of control | [7] 104 % of control

S=C(SSC(=S)C1CCCC1=NC1CCCCC1)C1CCCC1=NC1CCCCC1 (configuration not stated)
inactive: [4] 101 % of control | [5] 108 % of control | [6] 108 % of control

CCOC(=O)c1c(C#N)c2ccccc2n1O
inactive: dose: 25.0 mg/kg/injection, schedule: Q01DX001 (ip), vehicle: distilled water + Tween-80 110 % of control | dose: 50.0 mg/kg/injection, schedule: Q01DX001 (ip), vehicle: distilled water + Tween-80 106 % of control | dose: 100.0 mg/kg/injection, schedule: Q01DX001 (ip), vehicle: distilled water + Tween-80 110 % of control | [16] 97 % of control | [17] 99 % of control

O=c1c2ccccc2c(=O)n2c(=O)c3ccccc3c(=O)n12
inactive: [4] 100 % of control | [5] 100 % of control | [6] 104 % of control | dose: 400.0 mg/kg/injection, schedule: Q01DX009 (ip), vehicle: Klucel (hydroxypropylcellulose) (HPC) 103 % of control

CCN(CCO)CCNc1ccc(C)c2sc3cc(Cl)ccc3c(=O)c12
inactive: dose: 12.5 mg/kg/injection, schedule: Q01DX005 (ip), vehicle: Klucel (hydroxypropylcellulose) (HPC) 104 % of control | dose: 25.0 mg/kg/injection, schedule: Q01DX005 (ip), vehicle: Klucel (hydroxypropylcellulose) (HPC) 104 % of control | dose: 50.0 mg/kg/injection, schedule: Q01DX005 (ip), vehicle: Klucel (hydroxypropylcellulose) (HPC) 101 % of control and 102 % of control | dose: 100.0 mg/kg/injection, schedule: Q01DX005 (ip), vehicle: Klucel (hydroxypropylcellulose) (HPC) 111 % of control

C=C(C)C1(n2[nH]c(=O)n(-c3ccccc3)c2=O)CCC(C)=CC1=O (configuration not stated)
inactive: [16] 102 % of control | dose: 200.0 mg/kg/injection, schedule: Q01DX001 (ip), vehicle: saline with Tween-80 95 % of control | [17] 87 % of control

C=C1C(=O)C2=CC1CCC(=O)C1(C)CCC(OC(C)=O)C(C)(C)C1CC2O (configuration not stated)
inactive: dose: 7.5 mg/kg/injection, schedule: Q01DX009 (ip), vehicle: Klucel (hydroxypropylcellulose) (HPC) 105 % of control and 107 % of control | dose: 15.0 mg/kg/injection, schedule: Q01DX009 (ip), vehicle: Klucel (hydroxypropylcellulose) (HPC) 110 % of control and 120 % of control and 123 % of control | dose: 30.0 mg/kg/injection, schedule: Q01DX009 (ip), vehicle: Klucel (hydroxypropylcellulose) (HPC) 102 % of control and 113 % of control and 114 % of control | dose: 60.0 mg/kg/injection, schedule: Q01DX009 (ip), vehicle: Klucel (hydroxypropylcellulose) (HPC) 111 % of control and 124 % of control

Brc1cc2c(cc1C=Nc1ccc(OCc3ccccc3)cc1)OCO2
inactive: dose: 25.0 mg/kg/injection, schedule: Q01DX009 (ip), vehicle: other 98 % of control | dose: 50.0 mg/kg/injection, schedule: Q01DX009 (ip), vehicle: other 103 % of control | dose: 100.0 mg/kg/injection, schedule: Q01DX009 (ip), vehicle: other 97 % of control | dose: 200.0 mg/kg/injection, schedule: Q01DX009 (ip), vehicle: other 95 % of control | dose: 400.0 mg/kg/injection, schedule: Q01DX009 (ip), vehicle: other 86 % of control

CSN(C)C(=O)Nc1cc(Cl)ccc1Cl
inactive: dose: 100.0 mg/kg/injection, schedule: Q04DX003 (ip), vehicle: saline 107 % of control | dose: 200.0 mg/kg/injection, schedule: Q04DX003 (ip), vehicle: saline 92 % of control | dose: 400.0 mg/kg/injection, schedule: Q04DX003 (ip), vehicle: saline 92 % of control

O=C1OC(O)c2cccc3cccc1c23 (configuration not stated)
inactive: [10] 98 % of control | [11] 100 % of control | [12] 94 % of control

O=C(C=C(C(F)(F)F)C(F)(F)F)c1cccc(S(=O)(=O)F)c1
inactive: dose: 3.13 mg/kg/injection, schedule: Q04DX003 (ip), vehicle: saline 100 % of control | [13] 100 % of control | [14] 95 % of control

CC(C)(C)OC(=O)NCCCC(NC(=O)OCc1ccccc1)C(=O)O (configuration not stated)
inactive: [1] 103 % of control | [2] 99 % of control | [3] 95 % of control

COc1ccccc1C1OC2=C(Nc3ccc([N+](=O)[O-])cc3N2)C1=O (configuration not stated)
inactive: dose: 30.0 mg/kg/injection, schedule: Q01DX005 (ip), vehicle: Klucel (hydroxypropylcellulose) (HPC) 93 % of control | [10] 92 % of control | [11] 92 % of control and 96 % of control

CC1OC(O[C@H]2C[C@](O)(C(C)O)Cc3c(O)c4c(c(O)c32)C(=O)c2c(O)cccc2C4=O)CC(NC=O)C1O (some centres not stated)
inactive: dose: 0.16 mg/kg/injection, schedule: Q04DX003 (ip), vehicle: water 118 % of control | dose: 0.32 mg/kg/injection, schedule: Q04DX003 (ip), vehicle: water 113 % of control | dose: 0.33 mg/kg/injection, schedule: Q04DX003 (ip), vehicle: water 103 % of control | dose: 0.65 mg/kg/injection, schedule: Q04DX003 (ip), vehicle: water 111 % of control | dose: 1.29 mg/kg/injection, schedule: Q04DX003 (ip), vehicle: water 115 % of control | dose: 2.58 mg/kg/injection, schedule: Q04DX003 (ip), vehicle: water 123 % of control

Source: PubChem BioAssay AID330 (DTP/NCI, 2004)
